Reference: patent US6833137B1, “Protection against termites” (Bayer CropScience S.A., priority 1996, dated 2004)

System: termites
Test: termite perforation test on gypsum block treated with compound A, separating two chambers
Assay type: in vivo
Details: after 21 days; gypsum block sprayed on both faces, 0.05 g/m^2 of compound A; 160 termites in upper chamber
Description: A gypsum block is used which has a surface area of 30 cm^2 and a thickness of 0.8 cm and is covered on both its face with cardboard having a relative density of […] and a thickness of 0.2 mm.
A solution of compound A in propylene glycol is sprayed over both faces of this block in an amount such that the gypsum block contains 0.05 g/m^2 of compound A.
Two vertical cylindrical chambers with a diameter of 5 cm are separated using the gypsum block thus treated. The upper chamber comprises 160 termites placed in damp compost. The lower chamber comprises a piece of wood placed in moistened sand.
After 21 days, a mortality rate equal to 100% is observed.

## N#Cc1nn(-c2c(Cl)cc(C(F)(F)F)cc2Cl)c(N)c1[S+]([O-])C(F)(F)F (stereo not shown) [compound A, 1-[2,6-Cl2-4-CF3phenyl]-3-CN-4-[SO—CF3]-5-NH2pyrazole]
  mortality rate: 100%
